Assay [1] deals with S. aureus Alpha hemolysin (Staphylococcus aureus, UniProt P09616). The experiment in a line: cell-based. The settings on record: A549-LDH Assay activity.
Assay [2] concerns the target hemolysin alpha from Staphylococcus aureus (Staphylococcus aureus, UniProt P09616). The experiment in a line: cell-based.

One may read the EC50 as the concentration that produces a half-maximal response.

S. aureus Alpha hemolysin, sequence (P09616 27-319 limits assumed): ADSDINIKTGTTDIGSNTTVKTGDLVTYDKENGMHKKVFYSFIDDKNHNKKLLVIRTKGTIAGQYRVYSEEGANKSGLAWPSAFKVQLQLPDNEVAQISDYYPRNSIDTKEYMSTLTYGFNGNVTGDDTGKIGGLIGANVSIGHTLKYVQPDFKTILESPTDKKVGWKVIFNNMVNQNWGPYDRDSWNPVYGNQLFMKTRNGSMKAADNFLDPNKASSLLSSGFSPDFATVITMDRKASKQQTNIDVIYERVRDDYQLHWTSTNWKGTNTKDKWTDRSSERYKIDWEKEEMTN
hemolysin alpha from Staphylococcus aureus, sequence (P09616 27-319 limits assumed): as above

With `C#Cc1cc(NS(=O)(=O)c2cc3[nH]c(=O)c(=O)[nH]c3cc2C)ccc1-c1ccccc1` [Compound 252, N-(3-ethynyl-4-phenyl-phenyl)-7-methyl-2,3-dioxo-1,4-dihydroquinoxaline-6-sulfonamide], the EC50 is 30 to 100 nM in assay [1] and less than 30 nM in assay [2].
Regarding `C#Cc1cc(NS(=O)(=O)c2cc3[nH]c(=O)c(=O)[nH]c3cc2C)ccc1-c1ccc(C#N)cc1` [Compound 253, N-[4-(4-cyanophenyl)-3-ethynyl-phenyl]-7-methyl-2,3-dioxo-1,4-dihydroquinoxaline-6-sulfonamide], the EC50 in assay [1] is 30 to 100 nM; in assay [2], less than 30 nM.
On the same counts, the results for `Cc1cc2[nH]c(=O)c(=O)[nH]c2cc1S(=O)(=O)Nc1ccc(-c2ccc(C#N)nc2)c(Cl)c1` [Compound 254, N-[3-chloro-4-(6-cyano-3-pyridyl)phenyl]-7-methyl-2,3-dioxo-1,4-dihydroquinoxaline-6-sulfonamide] are 100 to 1000 nM and 100 to 1000 nM.
Take `Cc1cc2[nH]c(=O)c(=O)[nH]c2cc1S(=O)(=O)Nc1ccc(-c2ccc(F)cc2)c(N(C)C)c1` [Compound 255, N-[3-(dimethylamino)-4-(4-fluorophenyl)phenyl]-7-methyl-2,3-dioxo-1,4-dihydroquinoxaline-6-sulfonamide]: the EC50 in assay [1] and in assay [2] was 100 to 1000 nM throughout.
`Cc1cc2[nH]c(=O)c(=O)[nH]c2cc1S(=O)(=O)Nc1ccc(-c2ccc3nn[nH]c3c2)c(Cl)c1` [Compound 256, N-[4-(1H-benzotriazol-5-yl)-3-chloro-phenyl]-7-methyl-2,3-dioxo-1,4-dihydroquinoxaline-6-sulfonamide]: the figures for the EC50 in assay [1] and in assay [2] were 30 to 100 nM and less than 30 nM, respectively.
For `Cc1cc2[nH]c(=O)c(=O)[nH]c2cc1S(=O)(=O)Nc1ccc(-c2ccc(Cl)c(Cl)c2)c(Cl)c1` [Compound 257, N-[3-chloro-4-(3,4-dichlorophenyl)phenyl]-7-methyl-2,3-dioxo-1,4-dihydroquinoxaline-6-sulfonamide] the same measures were 30 to 100 nM and less than 30 nM.
For `COc1cc(OC)cc(-c2ccc(NS(=O)(=O)c3cc4[nH]c(=O)c(=O)[nH]c4cc3C)cc2Cl)c1` [Compound 258, N-[3-chloro-4-(3,5-dimethoxyphenyl)phenyl]-7-methyl-2,3-dioxo-1,4-dihydroquinoxaline-6-sulfonamide] the same measures were 100 to 1000 nM and 100 to 1000 nM.
On the same counts, the results for `Cc1cc2[nH]c(=O)c(=O)[nH]c2cc1S(=O)(=O)Nc1ccc(-c2ccc3c(c2)OCCO3)c(Cl)c1` [Compound 259, N-[3-chloro-4-(2,3-dihydro-1,4-benzodioxin-6-yl)phenyl]-7-methyl-2,3-dioxo-1,4-dihydroquinoxaline-6-sulfonamide] are 100 to 1000 nM and less than 30 nM.
Consider `COc1ncc(-c2ccc(NS(=O)(=O)c3cc4[nH]c(=O)c(=O)[nH]c4cc3C)cc2Cl)cn1` [Compound 260, N-[3-chloro-4-(2-methoxypyrimidin-5-yl)phenyl]-7-methyl-2,3-dioxo-1,4-dihydroquinoxaline-6-sulfonamide], for which the EC50 in assay [1] and in assay [2] was 100 to 1000 nM throughout.
Turning to `COc1ccc(-c2ccc(NS(=O)(=O)c3cc4[nH]c(=O)c(=O)[nH]c4cc3C)cc2Cl)c(F)c1` [Compound 261, N-[3-chloro-4-(2-fluoro-4-methoxy-phenyl)phenyl]-7-methyl-2,3-dioxo-1,4-dihydroquinoxaline-6-sulfonamide], the EC50 in assay [1] was 30 to 100 nM; in assay [2] it was less than 30 nM.
For `Cc1cc2[nH]c(=O)c(=O)[nH]c2cc1S(=O)(=O)Nc1ccc(-c2ccc(S(C)(=O)=O)cc2F)c(Cl)c1` [Compound 262, N-[3-chloro-4-(2-fluoro-4-methylsulfonyl-phenyl)phenyl]-7-methyl-2,3-dioxo-1,4-dihydroquinoxaline-6-sulfonamide] the same measures were 1000 to 6000 nM and 1000 to 3500 nM.
For `Cc1cc2[nH]c(=O)c(=O)[nH]c2cc1S(=O)(=O)Nc1ccc(-n2cncn2)c(Cl)c1` [Compound 263, N-[3-chloro-4-(1,2,4-triazol-1-yl)phenyl]-7-methyl-2,3-dioxo-1,4-dihydroquinoxaline-6-sulfonamide] the same measures were 100 to 1000 nM and 1000 to 3500 nM.
On to `Cc1cc2[nH]c(=O)c(=O)[nH]c2cc1S(=O)(=O)Nc1ccc(-n2ccnn2)c(Cl)c1` [Compound 264, N-[3-chloro-4-(triazol-1-yl)phenyl]-7-methyl-2,3-dioxo-1,4-dihydroquinoxaline-6-sulfonamide], for which the EC50 in assay [1] and in assay [2] was 100 to 1000 nM each time.
As for `Cc1cc2[nH]c(=O)c(=O)[nH]c2cc1S(=O)(=O)Nc1ccc(-n2cncn2)cc1` [Compound 265, 7-methyl-2,3-dioxo-N-[4-(1,2,4-triazol-1-yl)phenyl]-1,4-dihydroquinoxaline-6-sulfonamide], the EC50 in assay [1] was 1000 to 6000 nM; in assay [2] it was 1000 to 3500 nM.
On the same counts, the results for `Cc1ccc(-c2ccc(NS(=O)(=O)c3cc4[nH]c(=O)c(=O)[nH]c4cc3C)cc2Cl)cc1C` [Compound 266, N-[3-chloro-4-(3,4-dimethylphenyl)phenyl]-7-methyl-2,3-dioxo-1,4-dihydroquinoxaline-6-sulfonamide] are 100 to 1000 nM and 100 to 1000 nM.
For `[2H]C([2H])([2H])Oc1ccc(-c2ccc(NS(=O)(=O)c3cc4[nH]c(=O)c(=O)[nH]c4cc3C)cc2Cl)cc1` [Compound 267, N-[3-chloro-4-[4-(trideuteriomethoxy)phenyl]phenyl]-7-methyl-2,3-dioxo-1,4-dihydroquinoxaline-6-sulfonamide] the same measures were 30 to 100 nM and less than 30 nM.
On the same counts, the results for `Cc1cc2[nH]c(=O)c(=O)[nH]c2cc1S(=O)(=O)Nc1ccc(-c2ccc(OC3CC3)cc2)c(Cl)c1` [Compound 268, N-[3-chloro-4-[4-(cyclopropoxy)phenyl]phenyl]-7-methyl-2,3-dioxo-1,4-dihydroquinoxaline-6-sulfonamide] are 100 to 1000 nM and 30 to 100 nM.
For `Cc1nc2ccc(-c3ccc(NS(=O)(=O)c4cc5[nH]c(=O)c(=O)[nH]c5cc4C)cc3Cl)cc2o1` [Compound 269, N-[3-chloro-4-(2-methyl-1,3-benzoxazol-6-yl)phenyl]-7-methyl-2,3-dioxo-1,4-dihydroquinoxaline-6-sulfonamide], the EC50 in assay [1] and in assay [2] was less than 30 nM throughout.
As for `Cc1cc2[nH]c(=O)c(=O)[nH]c2cc1S(=O)(=O)Nc1ccc(-c2ccc3[nH]ccc3c2)c(Cl)c1` [Compound 270, N-[3-chloro-4-(1H-indol-5-yl)phenyl]-7-methyl-2,3-dioxo-1,4-dihydroquinoxaline-6-sulfonamide], the EC50 fell in the range of 30 to 100 nM in assay [1] and 100 to 1000 nM in assay [2].
As for `Cc1cc2[nH]c(=O)c(=O)[nH]c2cc1S(=O)(=O)Nc1ccc(-c2ccc3cc[nH]c3c2)c(Cl)c1` [Compound 271, N-[3-chloro-4-(1H-indol-6-yl)phenyl]-7-methyl-2,3-dioxo-1,4-dihydroquinoxaline-6-sulfonamide], the EC50 in assay [1] and in assay [2] was less than 30 nM in each case.
In the case of `Cc1nc2cc(-c3ccc(NS(=O)(=O)c4cc5[nH]c(=O)c(=O)[nH]c5cc4C)cc3Cl)ccc2o1` [Compound 272, N-[3-chloro-4-(2-methyl-1,3-benzoxazol-5-yl)phenyl]-7-methyl-2,3-dioxo-1,4-dihydroquinoxaline-6-sulfonamide], the EC50 in assay [1] and in assay [2] was less than 30 nM throughout.
Turning to `Cc1cc2[nH]c(=O)c(=O)[nH]c2cc1S(=O)(=O)Nc1ccc(-c2ccc3[nH]ncc3c2)c(Cl)c1` [Compound 273, N-[3-chloro-4-(1H-indazol-5-yl)phenyl]-7-methyl-2,3-dioxo-1,4-dihydroquinoxaline-6-sulfonamide], the EC50 in assay [1] lay in the range of 100 to 1000 nM; in assay [2], 30 to 100 nM.
For `Cc1cc2[nH]c(=O)c(=O)[nH]c2cc1S(=O)(=O)Nc1ccc(C2=CCCCC2)c(Cl)c1` [Compound 274, N-[3-chloro-4-(cyclohexen-1-yl)phenyl]-7-methyl-2,3-dioxo-1,4-dihydroquinoxaline-6-sulfonamide] the same measures were 30 to 100 nM and 30 to 100 nM.
For `Cc1cc2[nH]c(=O)c(=O)[nH]c2cc1S(=O)(=O)Nc1ccc(-c2ccc(C(F)(F)F)nc2)c(Cl)c1` [Compound 275, N-[3-chloro-4-[6-(trifluoromethyl)-3-pyridyl]phenyl]-7-methyl-2,3-dioxo-1,4-dihydroquinoxaline-6-sulfonamide] the same measures were 1000 to 6000 nM and 100 to 1000 nM.
Regarding `O=c1[nH]c2cc(OCC(F)(F)F)c(S(=O)(=O)Nc3ccc(OC(F)(F)F)cc3)cc2[nH]c1=O` [Compound 276, 2,3-dioxo-7-(2,2,2-trifluoroethoxy)-N-[4-(trifluoromethoxy)phenyl]-1,4-dihydroquinoxaline-6-sulfonamide], the EC50 in assay [1] was less than 30 nM; in assay [2], 30 to 100 nM.
For `Cc1cc2[nH]c(=O)c(=O)[nH]c2cc1S(=O)(=O)Nc1ccc(-c2ccc(OC(F)(F)F)cc2)c(Cl)c1` [Compound 277, N-[3-chloro-4-[4-(trifluoromethoxy)phenyl]phenyl]-7-methyl-2,3-dioxo-1,4-dihydroquinoxaline-6-sulfonamide] the same measures were 100 to 1000 nM and 100 to 1000 nM.
On the same counts, the results for `CCOc1cc2[nH]c(=O)c(=O)[nH]c2cc1S(=O)(=O)Nc1ccc(OC(F)(F)F)cc1` [Compound 278, 7-ethoxy-2,3-dioxo-N-[4-(trifluoromethoxy)phenyl]-1,4-dihydroquinoxaline-6-sulfonamide] are less than 30 nM and 100 to 1000 nM.
Consider `Cc1cc2[nH]c(=O)c(=O)[nH]c2cc1S(=O)(=O)Nc1cnc(-c2cncc(Cl)c2)c(Cl)c1` [Compound 279, N-[5-chloro-6-(5-chloro-3-pyridyl)-3-pyridyl]-7-methyl-2,3-dioxo-1,4-dihydroquinoxaline-6-sulfonamide], for which the EC50 in assay [1] and in assay [2] was 100 to 1000 nM throughout.
As for `Cc1cc2[nH]c(=O)c(=O)[nH]c2cc1S(=O)(=O)Nc1ccc(-c2cc[nH]c(=O)c2)c(Cl)c1` [Compound 280, N-[3-chloro-4-(2-oxo-1H-pyridin-4-yl)phenyl]-7-methyl-2,3-dioxo-1,4-dihydroquinoxaline-6-sulfonamide], the EC50 in assay [1] is 100 to 1000 nM; in assay [2], 1000 to 3500 nM.

These data come from patent US20240376084A1, “INHIBITORS OF ALPHA-HEMOLYSIN OF STAPHYLOCOCCUS AUREUS” (Helmholtz-Zentrum Fur Infektionsforschung GmbH, priority 2021, published 2024).
